Results taken from PubChem BioAssay AID2060887 (Molecular Pharmacology Branch, DTP, NCI, 2025).

System: 782815-120-R-J1-PDC complex spheroid viability
Test: Anticancer human tumor 782815-120-R-J1-PDC patient-derived colon adenocarcinoma cell line growth inhibition [RAS]
Details: for IC50: curve of first compound; for viability, T/C: stronger effect = lower value
In short: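 Tumour cells grown as complex spheroids with HUVEC endothelial cells and mesenchymal stem cells, treated with RAS pathway inhibitor combinations. Each agent spans half-log steps from near clinical Cmax, or 10 microM where Cmax is unknown.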

[1] = second compound 0.00316 µM, first compound 0.0316 µM
[2] = second compound 0.00316 µM, first compound 0.1 µM
[3] = second compound 0.00316 µM, first compound 0.316 µM
[4] = second compound 0.00316 µM, first compound 1 µM
[5] = second compound 0.00316 µM, first compound 3.16 µM
[6] = second compound 0.00316 µM, first compound 10 µM
[7] = second compound 0.01 µM, first compound 0.0316 µM
[8] = second compound 0.01 µM, first compound 0.1 µM
[9] = second compound 0.01 µM, first compound 0.316 µM
[10] = second compound 0.01 µM, first compound 1 µM
[11] = second compound 0.01 µM, first compound 3.16 µM
[12] = second compound 0.01 µM, first compound 10 µM
[13] = second compound 0.0316 µM, first compound 0.0316 µM
[14] = second compound 0.0316 µM, first compound 0.1 µM
[15] = second compound 0.0316 µM, first compound 0.316 µM
[16] = second compound 0.0316 µM, first compound 1 µM
[17] = second compound 0.0316 µM, first compound 3.16 µM
[18] = second compound 0.0316 µM, first compound 10 µM
[19] = second compound 0.1 µM, first compound 0.0316 µM
[20] = second compound 0.1 µM, first compound 0.1 µM
[21] = second compound 0.1 µM, first compound 0.316 µM
[22] = second compound 0.1 µM, first compound 1 µM
[23] = second compound 0.1 µM, first compound 3.16 µM
[24] = second compound 0.1 µM, first compound 10 µM
[25] = second compound 0.316 µM, first compound 0.0316 µM
[26] = second compound 0.316 µM, first compound 0.1 µM
[27] = second compound 0.316 µM, first compound 0.316 µM
[28] = second compound 0.316 µM, first compound 1 µM
[29] = second compound 0.316 µM, first compound 3.16 µM
[30] = second compound 0.316 µM, first compound 10 µM
[31] = second compound 1 µM, first compound 0.0316 µM
[32] = second compound 1 µM, first compound 0.1 µM
[33] = second compound 1 µM, first compound 0.316 µM
[34] = second compound 1 µM, first compound 1 µM
[35] = second compound 1 µM, first compound 3.16 µM
[36] = second compound 1 µM, first compound 10 µM
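Also: spheroids exposed to compounds for 7 days before reading.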
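For viability, T/C in this document: 100% = DMSO vehicle control viability.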

With `CC(C)NCC(C(=O)N1CCN(c2ncnc3c2C(C)CC3O)CC1)c1ccc(Cl)cc1` (stereo unspecified) + C=CC(=O)N1CCN(c2nc(OCC3CCCN3C)nc3c(F)c(-c4nc(N)cc(C)c4C(F)(F)F)c(Cl)cc23)C(C)C1 the IC50 (second compound 0.00316 µM) was > 10 µM, the IC50 (second compound 0.01 µM) was > 10 µM and the IC50 (second compound 0.0316 µM) was > 10 µM. For the same compound, the IC50 (second compound 0.1 µM) was > 10 µM, the IC50 (second compound 0.316 µM) was > 10 µM and the IC50 (second compound 1 µM) was > 10 µM. The viability, T/C [1] was 98.4%, the viability, T/C [2] was 97% and the viability, T/C [3] was 102%. The viability, T/C [4] was 92%, the viability, T/C [5] was 99% and the viability, T/C [6] was 98.7%. The viability, T/C [7] was 101%, the viability, T/C [8] was 93.3% and the viability, T/C [9] was 91.1%. For the same compound, the viability, T/C [10] was 93.2%, the viability, T/C [11] was 101% and the viability, T/C [12] was 96.9%. For the same compound, the viability, T/C [13] was 96.2%, the viability, T/C [14] was 96.8% and the viability, T/C [15] was 94.3%. The viability, T/C [16] was 87.9%, the viability, T/C [17] was 96.3% and the viability, T/C [18] was 101%. For the same compound, the viability, T/C [19] was 104%, the viability, T/C [20] was 95.2% and the viability, T/C [21] was 96.4%. It also gave a viability, T/C [22] of 94.5%, a viability, T/C [23] of 95.9% and a viability, T/C [24] of 104%. The viability, T/C [25] was 106%, the viability, T/C [26] was 93.4% and the viability, T/C [27] was 93%. For the same compound, the viability, T/C [28] was 88.5%, the viability, T/C [29] was 96.7% and the viability, T/C [30] was 92.6%. It also gave a viability, T/C [31] of 105%, a viability, T/C [32] of 100% and a viability, T/C [33] of 92.5%. The viability, T/C [34] was 98.9%, the viability, T/C [35] was 103% and the viability, T/C [36] was 99.1%.
In the case of `CC(C)n1nc(-c2ccc3oc(N)nc3c2)c2c(N)ncnc21` + C=CC(=O)N1CCN(c2nc(OCC3CCCN3C)nc3c(F)c(-c4nc(N)cc(C)c4C(F)(F)F)c(Cl)cc23)C(C)C1, the IC50 (second compound 0.00316 µM) is reported as > 0.1 µM, the IC50 (second compound 0.01 µM) is reported as > 0.1 µM and the IC50 (second compound 0.0316 µM) is reported as > 0.1 µM. For the same compound, the IC50 (second compound 0.1 µM) was > 0.1 µM, the IC50 (second compound 0.316 µM) was > 0.1 µM and the IC50 (second compound 1 µM) was > 0.1 µM. For the same compound, the viability, T/C (second compound 0.00316 µM, first compound 0.000316 µM) was 101%, the viability, T/C (second compound 0.00316 µM, first compound 0.001 µM) was 101% and the viability, T/C (second compound 0.00316 µM, first compound 0.00316 µM) was 96.1%. For the same compound, the viability, T/C (second compound 0.00316 µM, first compound 0.01 µM) was 91.7%, the viability, T/C [1] was 90.2% and the viability, T/C [2] was 93.1%. For the same compound, the viability, T/C (second compound 0.01 µM, first compound 0.000316 µM) was 99.8%, the viability, T/C (second compound 0.01 µM, first compound 0.001 µM) was 95.9% and the viability, T/C (second compound 0.01 µM, first compound 0.00316 µM) was 100%. The viability, T/C (second compound 0.01 µM, first compound 0.01 µM) was 89.1%, the viability, T/C [7] was 92.7% and the viability, T/C [8] was 95.5%. For the same compound, the viability, T/C (second compound 0.0316 µM, first compound 0.000316 µM) was 101%, the viability, T/C (second compound 0.0316 µM, first compound 0.001 µM) was 102% and the viability, T/C (second compound 0.0316 µM, first compound 0.00316 µM) was 98.7%. The viability, T/C (second compound 0.0316 µM, first compound 0.01 µM) was 95.8%, the viability, T/C [13] was 92.2% and the viability, T/C [14] was 91.4%. It also gave a viability, T/C (second compound 0.1 µM, first compound 0.000316 µM) of 98.7%, a viability, T/C (second compound 0.1 µM, first compound 0.001 µM) of 102% and a viability, T/C (second compound 0.1 µM, first compound 0.00316 µM) of 91.3%. For the same compound, the viability, T/C (second compound 0.1 µM, first compound 0.01 µM) was 92.1%, the viability, T/C [19] was 105% and the viability, T/C [20] was 92.6%. The viability, T/C (second compound 0.316 µM, first compound 0.000316 µM) was 97.5%, the viability, T/C (second compound 0.316 µM, first compound 0.001 µM) was 105% and the viability, T/C (second compound 0.316 µM, first compound 0.00316 µM) was 95.1%. The viability, T/C (second compound 0.316 µM, first compound 0.01 µM) was 102%, the viability, T/C [25] was 92.8% and the viability, T/C [26] was 94.7%. It also gave a viability, T/C (second compound 1 µM, first compound 0.000316 µM) of 104%, a viability, T/C (second compound 1 µM, first compound 0.001 µM) of 104% and a viability, T/C (second compound 1 µM, first compound 0.00316 µM) of 91.5%. It also gave a viability, T/C (second compound 1 µM, first compound 0.01 µM) of 96.9%, a viability, T/C [31] of 94.1% and a viability, T/C [32] of 87.7%.
In the case of `CC(Nc1ccc2c(c1)OCCn1cc(N3C(=O)OCC3C(F)F)nc1-2)C(N)=O` (stereo unspecified) + C=CC(=O)N1CCN(c2nc(OCC3CCCN3C)nc3c(F)c(-c4nc(N)cc(C)c4C(F)(F)F)c(Cl)cc23)C(C)C1, the IC50 (second compound 0.00316 µM) is reported as > 10 µM, the IC50 (second compound 0.01 µM) is reported as > 10 µM and the IC50 (second compound 0.0316 µM) is reported as > 10 µM. The IC50 (second compound 0.1 µM) was > 10 µM, the IC50 (second compound 0.316 µM) was > 10 µM and the IC50 (second compound 1 µM) was > 10 µM. The viability, T/C [1] was 92.9%, the viability, T/C [2] was 87.6% and the viability, T/C [3] was 88.4%. For the same compound, the viability, T/C [4] was 79.1%, the viability, T/C [5] was 99.6% and the viability, T/C [6] was 103%. The viability, T/C [7] was 93.5%, the viability, T/C [8] was 98.6% and the viability, T/C [9] was 95.8%. It also gave a viability, T/C [10] of 83.6%, a viability, T/C [11] of 103% and a viability, T/C [12] of 98.8%. For the same compound, the viability, T/C [13] was 93.2%, the viability, T/C [14] was 93.6% and the viability, T/C [15] was 82.3%. The viability, T/C [16] was 80.6%, the viability, T/C [17] was 87.8% and the viability, T/C [18] was 93.3%. The viability, T/C [19] was 88.3%, the viability, T/C [20] was 91.1% and the viability, T/C [21] was 94.1%. The viability, T/C [22] was 86.1%, the viability, T/C [23] was 102% and the viability, T/C [24] was 93.2%. The viability, T/C [25] was 93.6%, the viability, T/C [26] was 86.4% and the viability, T/C [27] was 86.4%. For the same compound, the viability, T/C [28] was 89.2%, the viability, T/C [29] was 85.1% and the viability, T/C [30] was 101%. It also gave a viability, T/C [31] of 95.2%, a viability, T/C [32] of 79.5% and a viability, T/C [33] of 87.2%. For the same compound, the viability, T/C [34] was 85.2%, the viability, T/C [35] was 97.8% and the viability, T/C [36] was 92.8%.
